Reference: the NIST ThermoML archive (doi:10.1021/je400102p)

Test: relative permittivity at various frequencies (dimensionless)
Settings: Liquid, Frequency=0.001 MHz, Concentric Cylinder Capacitor

Cc1ccccc1 [toluene]
Settings | relative permittivity
303.15 K, 312 kPa | 2.37527
303.15 K, 1015 kPa | 2.37634
303.15 K, 5058 kPa | 2.38253
303.15 K, 10116 kPa | 2.38999
303.15 K, 20221 kPa | 2.40447
303.15 K, 30317 kPa | 2.41824
303.15 K, 40408 kPa | 2.43058
303.15 K, 50497 kPa | 2.44313
303.15 K, 60603 kPa | 2.45469
333.15 K, 402 kPa | 2.31204
333.15 K, 995 kPa | 2.3134
333.15 K, 5053 kPa | 2.32081
333.15 K, 10114 kPa | 2.32958
333.15 K, 20221 kPa | 2.34637
333.15 K, 30317 kPa | 2.36168
333.15 K, 40419 kPa | 2.3756
333.15 K, 50510 kPa | 2.38883
333.15 K, 60615 kPa | 2.40129
363.15 K, 314 kPa | 2.24824
363.15 K, 1010 kPa | 2.2498
363.15 K, 5053 kPa | 2.25867
363.15 K, 10108 kPa | 2.26912
363.15 K, 10109 kPa | 2.26918
363.15 K, 10111 kPa | 2.26913
363.15 K, 20229 kPa | 2.28839
363.15 K, 20231 kPa | 2.28835
363.15 K, 20232 kPa | 2.28831
363.15 K, 30317 kPa | 2.30557
363.15 K, 30325 kPa | 2.30571
363.15 K, 40408 kPa | 2.32135
363.15 K, 50502 kPa | 2.33608
363.15 K, 50510 kPa | 2.33603
363.15 K, 60614 kPa | 2.3499
363.15 K, 60624 kPa | 2.34978
393.15 K, 1622 kPa | 2.18753
393.15 K, 5063 kPa | 2.19687
393.15 K, 5070 kPa | 2.19705
393.15 K, 10114 kPa | 2.20937
393.15 K, 10123 kPa | 2.20955
393.15 K, 20223 kPa | 2.23281
393.15 K, 20234 kPa | 2.23259
393.15 K, 30331 kPa | 2.2527
393.15 K, 40414 kPa | 2.27067
